According to BindingDB's records for patent US8575203 (Boehringer Ingelheim International, 2013):

Target: T1, 3-phosphoinositide-dependent protein kinase 1 (Homo sapiens, UniProt O15530)
T1 sequence (O15530 whole entry): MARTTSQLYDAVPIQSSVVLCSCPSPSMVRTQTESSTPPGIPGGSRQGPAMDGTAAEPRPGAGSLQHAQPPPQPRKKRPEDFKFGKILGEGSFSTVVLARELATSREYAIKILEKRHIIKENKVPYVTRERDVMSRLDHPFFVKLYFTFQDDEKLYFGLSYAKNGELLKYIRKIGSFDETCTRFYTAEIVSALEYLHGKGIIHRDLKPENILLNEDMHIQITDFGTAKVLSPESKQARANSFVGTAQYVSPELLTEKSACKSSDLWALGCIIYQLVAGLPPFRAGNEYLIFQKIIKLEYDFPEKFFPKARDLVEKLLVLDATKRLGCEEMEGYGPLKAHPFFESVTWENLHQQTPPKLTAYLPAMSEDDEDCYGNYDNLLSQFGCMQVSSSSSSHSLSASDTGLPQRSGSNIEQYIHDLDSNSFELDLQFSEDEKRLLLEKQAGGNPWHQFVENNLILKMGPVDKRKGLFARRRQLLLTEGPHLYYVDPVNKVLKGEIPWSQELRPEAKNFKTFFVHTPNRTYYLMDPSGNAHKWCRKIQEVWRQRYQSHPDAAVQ
Experiment: Kinase Assay
Procedure: The activity of the compounds according to the invention on the kinase PDK1 which inhibits the signal transduction pathway is determined in an in vitro kinase assay with recombinantly prepared protein.

SMILES: CN(C)C(=O)c1cnc2ccc(C#CCNC(=O)c3cncn(Cc4ccc(F)c(F)c4)c3=O)cc2n1 [US8575203, II-70]
- IC50: 185 nM
